Data reported in publication PMC8533149 (Biomolecules, 2021).

These compounds were tested on HIV-1 LTR-III G-quadruplex (FAM/TAMRA-labeled LTR-III) (assay: FRET melting assay, LTR-III G4). Details: Table S1 primary screening, ligand:ODN 50:1, singlicate.
Format: binding
Method: To evaluate stabilizing properties of the ligands in a complex with oligodeoxyribonucleotides (ODNs) melting with fluorescence registration was used. ODN (0.5 μM) (Table 1), labeled with 6-carboxyfluorescein (FAM) and 6-carboxytetramethylrhodamine (TAMRA) at the 5′- and 3′-end, respectively, were folded in lithium cacodylate buffer (10 mM, pH 7.4) with 100 mM KCl by heating at 95 °C for 5 min and gradually cooling to r.t. GFP chromophore analogs (5 mM solution in DMSO) were diluted with the same buffer to the final concentration of 25 μM and mixed with an equal volume of 0.5 μM ODN solution resulting in a molar ratio of 50:1 (total volume was 50 μL). For the titration experiments molar ratios of 20:1 and 2:1 were used. Samples were analyzed using DTprime qPCR system (DNA-Technology LLC, Moscow, Russia). Fluorescence was registered by detection of FAM emission at 520 nm upon excitation at 495 nm in the temperature range of 30–95 °C with 1 °C/min gradient. Tm was determined using the instrument software and ΔTm was calculated relative to ODN Tm in a buffer solution containing 0.25% (v/v) DMSO. The primary and secondary screening were carried out in singlicate and triplicate, respectively.

SMILES	LTR-III ΔTm
CCC(=O)n1cc(C=C2N=C(CC)OC2=O)c2c(C)cccc21 [M 1977]	0 °C
CC1=NC(=Cc2ccc(O)c(C#N)c2)C(=O)N1C [M 2489.2]	-0.5 °C
CC1=NC(=Cc2ccc(O)cc2O)C(=O)N1C [N 844.1]	-0.1 °C
C=CCOc1ccc(C=C2N=C(C)N(C)C2=O)cc1 [X 8]	0 °C
COc1cc(O)ccc1C=C1N=C(c2cccs2)N(C)C1=O [SH 016.3B]	0.9 °C
COc1ccc(C(O)(c2ccccc2)c2ccccn2)cc1 (stereo not shown) [M 1136]	-0.7 °C
CON1C(=O)C=NC(=Cc2ccc(O)cc2)C1=O [M 577]	0.1 °C
COc1ccccc1C=CC1=NC(=Cc2ccc(O)cc2)C(=O)N1C [ccA 20]	0.4 °C
CC1=NC(=Cc2ccc(O)cc2)C(=O)N1C [GA 03]	0.5 °C
COC(=O)c1noc(C(=O)N2CCCC2)c1-c1ccc(OC)cc1 [SA 561B]	-0.6 °C
CNC(=O)C(=Cc1ccc(C#N)cc1)N=P(c1ccccc1)(c1ccccc1)c1ccccc1 [N 831]	0 °C
CCN(CC)c1ccc(C=C2N=C(C)N(CCCCCl)C2=O)cc1 [N 189]	0.2 °C
COc1ccccc1C=CC1=NC(=Cc2ccc(O)cc2)C(=O)N1CCNC(C)=O [ccE 7]	0.3 °C
CC1=NC(=Cc2ccccc2O)C(=O)N1 [N 702.1]	0 °C
COc1ccc(C=C2N=C(SC)N(C)C2=O)cc1 [VZ 1]	0.4 °C
CC1=NC(=Cc2cccc(F)c2O)C(=O)N1C [N 781]	0 °C
CNC(=O)C(=Cc1ccccc1)N=P(c1ccccc1)(c1ccccc1)c1ccccc1 [N 832]	-0.5 °C
CCC(=O)Oc1ccc(C=C2N=C(CC)OC2=O)cc1 [M 292]	-0.6 °C
CN1C(=O)C(=Cc2ccc(O)cc2)N=C1C=Cc1ccc2cc(N(C)C)ccc2c1 [N 861]	0 °C
CCN(CC)c1ccc(C=C2N=C(C(C)=O)N(C)C2=O)cc1 [M 1706]	-0.4 °C
CN1C(=O)C(=Cc2ccc(O)cc2)N=C1C=Cc1c(F)c(F)c(O)c(F)c1F [N 893]	-0.4 °C
COc1ccc(C=C2N=C(C(C)(C)C)N(C)C2=O)cc1 [M 440]	-0.1 °C
CC(C)OC(=O)c1noc(C(=O)N2CCOCC2)c1-c1cccc2ccccc12 [SA 343A]	-0.4 °C

SMILES	LTR-III ΔTm
COc1cc(/C=C2N=C(/C=C/c3ccccc3)N(C)C\2=O)ccc1O [M 2499a]	0.1 °C
CN1C(=O)C(=Cc2ccc(O)cc2)N=C1C=Cc1ccccc1 [ccA 1]	0.6 °C
CC(C)OC(=O)c1noc(=O)c(O)c1-c1cccc(C(F)(F)F)c1 [SA 305B]	-0.5 °C
CN1C(=O)C(=Cc2ccc(SSc3ccc(C=C4N=C(C=Cc5cc(Br)c(O)c(Br)c5)N(C)C4=O)cc3)cc2)N=C1C=Cc1cc(Br)c(O)c(Br)c1 [N 898]	0.1 °C
COc1ccc(C=C2N=C(C)N(CCNC(=O)OC(C)(C)C)C2=O)cc1OC [M 2022e]	0 °C
COc1ccc(C=C2N=C3C(=O)NCCN3C2=O)cc1OC [JL 06.2]	0.4 °C
CN(C)c1ccc(C=C2NC(=S)NC2=O)cc1 [AL 165]	-0.2 °C
CN1C(=O)C(=Cc2ccccc2)N=C1Nc1ccccc1 [M 2385b1]	-0.1 °C
CC(C)OC(=O)c1noc(C(=O)NCc2ccccc2)c1-c1cccc2ccccc12 [SA 343B]	-0.9 °C
O=C1CN2C(=O)C(=Cc3ccc(O)cc3)N=C2C(=O)N1 [SA 102]	0.2 °C
CN1C(=O)C(=Cc2ccc(O)cc2)N=C1CCCCCNC(=O)OC(C)(C)C [X 21]	-0.1 °C
CN1C(=O)C(=Cc2ccc(O)cc2)N=C1C(=O)c1ccccc1 [M 2372a]	0.1 °C
CN1C(=O)C(=Cc2ccc(O)cc2)N=C1C=Cc1cccs1 [ccA 19]	-0.1 °C
COc1ccc(-c2c(C(=O)OC(C)C)noc2C(=O)NCc2ccccc2)cc1 [SA 341C]	-0.2 °C
CC1=NC(=Cc2ccccc2)C(=O)N1Cc1ccccc1 [ZS142]	-1.4 °C
CN1C(=O)C(=Cc2ccc(C#N)cc2)N=C1Nc1ccccc1 [M 2385a]	-0.1 °C
COC(=O)c1ccc(C=C2N=C(C=Cc3ccc(OC)cc3)N(C)C2=O)cc1 [AI 116]	0.8 °C
CC1=NC(=Cc2ccc3c(c2)CCN3)C(=O)N1C [N 652.3]	0.3 °C
CCC1=NC(=Cc2ccc(N(CC)CC)cc2)C(=O)N1C [M 747]	0.6 °C
CC(C)OC(=O)c1noc(=O)c(O)c1-c1ccccc1 [SA 300A]	0.1 °C
CCC1=NC(=Cc2ccc(O[Si](c3ccccc3)(c3ccccc3)C(C)(C)C)cc2)C(=O)N1O[Si](c1ccccc1)(c1ccccc1)C(C)(C)C [M 1505]	-0.3 °C
COc1ccc(C=C2N=C(C=C(O)c3ccc(Br)cc3)N(C)C2=O)cc1 [N 537]	-0.3 °C
O=C1C(=C2N=C3C=CC=CN3C2=O)N=C2C=CC=CN12 [N 817.2]	-0.1 °C

SMILES	LTR-III ΔTm
CCC1=NC(=Cc2ccc(O)cc2)C(=O)N1O [GA 15]	-0.1 °C
C=CCN1C(=O)C(=Cc2ccc(O[Si](c3ccccc3)(c3ccccc3)C(C)(C)C)cc2)N=C1C [M 653]	-0.2 °C
CCNCC.CCOC(=O)c1noc(=O)c(O)c1-c1ccccc1 [AL 58]	0.1 °C
CN1C(=O)C(=Cc2ccc(O)cc2)N=C1C=Cc1ccncc1 [ccA 9]	0.3 °C
COc1cc(O)ccc1C=C1N=C(C=Cc2c(F)c(F)nc(F)c2F)N(C)C1=O [N 967]	0.8 °C
CCOC(=O)CN1C(=O)C(=Cc2cccc([N+](=O)[O-])c2)N=C1C [SA 111]	-0.1 °C
CC1=NC(=Cc2cc(F)c(O)c(F)c2)C(=O)N1 [N 853]	-0.9 °C
CN1C=NC(=Cc2ccc(O[Si](c3ccccc3)(c3ccccc3)C(C)(C)C)cc2)C1=O [N 624]	-0.5 °C
CN1C(=O)C(=Cc2ccc(O)cc2)N=C1C=Cc1ccc(C(=O)O)cc1 [ccA 16]	0.8 °C
CN1C(=O)C(=Cc2ccc(O)cc2)N=C1C=Cc1cc(Cl)c(O)c(Cl)c1 [N 914]	-0.8 °C
COc1ccc(NC(=O)c2onc(C(=O)OC(C)C)c2-c2ccc(OC)cc2)cc1 [AL 45]	0.2 °C
CC(C)OC(=O)c1noc(C(=O)NCc2ccccc2)c1-c1cccs1 [SA 330E]	-0.7 °C
CN1C(=O)C(=Cc2ccc(OC(=O)c3ccccc3)cc2)N=C1C=C(OC(=O)c1ccccc1)c1ccccc1 [M 228]	-0.8 °C
CCN(CC)C(=S)Oc1ccc(C=C2N=C(c3ccccc3)N(C)C2=O)cc1 [M 2069]	-0.4 °C
COc1cc(C=C2N=C(C)N(C)C2=O)ccc1O [M 2491]	-0.2 °C
CCCC1=N/C(=C\c2ccncc2)C(=O)N1C [M 2237]	-0.3 °C
CCN(CC)c1ccc(C=C2N=C(C)N(CCNC(=O)OC(C)(C)C)C2=O)cc1 [M 2026c]	0.2 °C
CN1C(=O)C(=Cc2ccc(O)c(F)c2)N=C1c1ccccc1 [SA 49.1]	0 °C
CC1=NC(=Cc2ccc(Br)cc2)C(=O)N1C [SV 51.10]	-0.2 °C
CC1=NC(=Cc2cc(Br)cc(Br)c2)C(=O)N1C [SV 51.5]	-0.3 °C
CCC1=NC(=Cc2c[nH]c3ccccc23)C(=O)O1 [SV 11]	0 °C
